In patent publication US7842709B2, “Method for treating inflammatory diseases of the digestive tract” (Ore Pharmaceuticals Inc., priority 2006, dated 2010):

Key:
[1] = tested on: NF-κB dependent transcription in recombinant HeLa reporter cells; test: TNFα-induced activation of NF-κB dependent transcription, luciferase reporter in HeLa cells; assay type: cell-based; settings: TNFα 20 ng/ml, 6 hours
Source text: To test the ACE2 inhibitor GL1001 for anti-inflammatory activity relevant to IBD, effects of the compound on activation of NF-κB dependent transcription by TNFα were examined in recombinant reporter cells containing a construct with a luciferase reporter gene under control of NF-κB dependent regulatory sequences, thereby allowing detection of NF-κB dependent transcription by measuring reporter enzyme using a conventional luciferase activity assay based on detection of generated light.
In particular, HeLa cells (American Type Culture Collection) were grown in Dulbecco's modified Eagles medium (DMEM) supplemented with 10% fetal calf serum and transiently transfected with an NF-κB-luc construct (Stratagene, Inc.), as follows (with all incubation steps at 37 C unless otherwise indicated). Cells were seeded and grown to about 70% confluency in a 10 cm cell culture dish. Plasmid DNA (10 μg) was added to 1 ml serum free DMEM media in a tube. Fugene 6 transfection reagent (30 μl) (Roche) was then pipetted slowly into the tube and the contents were gently mixed by inversion. The mixture was incubated at room temperature for 15 minutes and then added dropwise to cells in one 10 cm dish. […] Bioluminescence was then measured using a Veritas luminometer (Turner BioSystems). […]

[2] = tested on: basal NF-κB dependent transcription; test: In vivo basal NF-κB dependent transcription, abdominal imaging of NF-κB:Luc mice; settings: 300 mg/kg subcutaneous, 4 hours; p<0.01
Source text: GL1001 was further tested for in vivo anti-inflammatory activity by examining its effects on basal levels of NF-κB dependent transcription in mice engineered in the germline with a construct containing an NF-κB enhancer linked to a luciferase gene (i.e., NF-κB:Luc mice), such that this NF-κB reporter construct is present in all cells of the mice.
More particularly, transgenic NF-κB:Luc mice were generated using three NF-κB response elements from the Igκ light chain promoter fused to a firefly luciferase gene as described by Carlsen et al. (2002) J. Immunol. 168:1441-1446. Pronuclear microinjection of purified construct DNA was used to generate transgenic founders in the C57BL/6 XCBA/J background. Founders were subsequently back crossed to the C57BL/6 albino background. […] Signal data were also quantitated and archived using the Living Image® software. Photons of light were quantitated using an oval region of interest (ROI) of varying sizes depending on the procedure, as described further below.
To test for in vivo effects of GL1001 on basal levels of NF-κB dependent transcription, male NF-κB:Luc mice were subjected to quantitative in vivo imaging of the abdominal area (using a fixed ROI of 2.76×3.7 cm) as described above, immediately before, and at 2, […]

[3] = tested on: activator protein-1 (AP-1); test: In vivo basal reporter luciferase expression in AP-1:Luc mice; settings: data not shown
[4] = tested on: LPS induced NF-κB dependent transcription; test: LPS induced NF-κB dependent transcription in extracted organs of NF-κB:Luc mice (luciferase lysate assay); assay type: in vivo; settings: 0.5 mg/kg LPS and GL1001 at 30 mg/1 g vs LPS alone (FIG. 6)
Source text: For luciferase assays, organs were extracted and snap frozen in liquid nitrogen. All tissue samples were placed in lysis buffer with inhibitors (Passive Lysis Buffer (Promega) and Complete Mini Protease Inhibitor Cocktail (Roche, Indianapolis, Ind.)), and were homogenized using a tissue homogenizer (Handishear, Hand-held homogenizer, VirTis, Gardiner, N.Y.). Tissue homogenates were centrifuged and clarified lysates were used for luminometer assays and western blots. For the luminometer assays, Luciferase Assay Substrate (Luciferase Assay System, Promega) was prepared as indicated by the manufacturer and placed in disposable cuvettes. […] Background luminescence readings were obtained and the background readings were subtracted from the luminescent data. Protein concentrations were determined using the BCA Protein Assay Kit (Pierce, Rockford, Ill.) following the manufacturer's protocols and analyzed using a VERSAmax tunable microplate reader and associated Softmax Pro version 3.1.2 software (Molecular Devices, Sunnyvale Calif.). The luminescence for each of the protein lysates was calculated as arbitrary units of light per microgram of protein. […]
GL1001 was further tested for in vivo anti-inflammatory activity by examining its effects on bacterial LPS induced NF-κB dependent transcription, in NF-κB:Luc mice. […] Luciferase signal was quantitated from several regions of interest. […]

DSS-induced colitis = DSS-induced colitis in Balb/c mice, Example 7; assay type: in vivo
Experimental: A study was designed with six groups of Balb/c mice: naïve control, DSS followed by vehicle, DSS followed by GL1001 30 mg/kg/day, DSS followed by GL1001 100 mg/kg/day, DSS followed by GL1001 300 mg/kg/day, and DSS followed by sulfasalazine 150 mg/kg/day. Administration of DSS was via drinking water, from day 1 to day 6 of the study. […] Administration of vehicle, GL1001 and sulfasalazine was subcutaneous, twice daily, from day 6 until termination of the study (day 16). Body weight of each animal was measured at days 1, 3 and 5 (pre-initiation of GL1001 or sulfasalazine treatment) and at days 7, 9, 11 and 13 (post-initiation of GL1001 or sulfasalazine treatment). On these same days, disease activity measurements were recorded, including: • (a) rectal prolapse (0=no prolapse, 1=partial prolapse, 2=moderate prolapse, 3=full prolapse); • (b) stool consistency (0=solid pellet, 1=semi-solid, 2=soft stool, 3=diarrhea); and • (c) fecal occult blood (0=no blood present, 1=occult blood, 2=gross blood). At termination of the study, colon length was determined and histological analysis was conducted as in Example 6.

ulcerative colitis = settings: 5 mg/kg infusions; cited from earlier work
NF-κB activity = settings: at least in CD; cited from earlier work
Crohn's disease = settings: cited from earlier work
[5] = after a single dose, 5 mg/kg infusion

With `CC(C)C[C@H](N[C@@H](Cc1cncn1Cc1cc(Cl)cc(Cl)c1)C(=O)O)C(=O)O` [GL1001, (S,S)-2-[1-carboxy-2-[3-(3,5-dichlorobenzyl)-3H-imidazol-4-yl]-ethylamino]-4-methylpentanoic acid] the “inhibition of TNFα induced activation of NF-κB dependent transcription” value ([1]; 8 nM) was “over 80%”, the “maximal inhibition of TNFα induced activation of NF-κB dependent transcription” value ([1]; 0.2 μM) was “over 95%” and the “inhibition of basal in vivo levels of NF-κB dependent transcription in abdominal ROI” value [2] was “over 40%”. For the same molecule, the “effect on basal in vivo levels of reporter luciferase expression in AP-1:Luc mice” value [3] was “no significant effect” and the “reduction of LPS induced NF-κB-dependent transcription in stomach” value [4] was “about 37 fold”.

For `O=C(O)c1cc(/N=N/c2ccc(S(=O)(=O)Nc3ccccn3)cc2)ccc1O` [sulfasalazine], the “reduction in colon length” value (DSS-induced colitis; sulfasalazine 150 mg/kg b.i.d. subcutaneous (FIG. 19)) was “inhibits reduction”, the “distal colon inflammation score” value (DSS-induced colitis; sulfasalazine 150 mg/kg b.i.d. subcutaneous (FIG. 20)) was “reduces” and the “distal colon crypt score” value (DSS-induced colitis; sulfasalazine 150 mg/kg b.i.d. subcutaneous (FIG. 21)) was “reduces”. For the same molecule, the “distal colon total histopathology score” value (DSS-induced colitis; sulfasalazine 150 mg/kg b.i.d. subcutaneous (FIG. 23)) was “reduces”, the stool consistency (DSS-induced colitis; sulfasalazine 150 mg/kg b.i.d. subcutaneous, day 7 (FIG. 17)) was “No significant effect” and the fecal occult blood (DSS-induced colitis; sulfasalazine 150 mg/kg b.i.d. subcutaneous, day 7 (FIG. 18)) was “reduces”. The percentage weight loss (DSS-induced colitis; sulfasalazine 150 mg/kg b.i.d. subcutaneous, day 9 (FIG. 15)) was “No significant effect” and the rectal prolapse (DSS-induced colitis; sulfasalazine 150 mg/kg b.i.d. subcutaneous, day 9 (FIG. 16)) was “reduces”.

For “Infliximab: anti-TNFα monoclonal antibody”, the “response rates in UC” value (ulcerative colitis) is given as 50-70%, the NF-κB activity (NF-κB activity) is given as “decrease” and the “induction of remission rate in CD” value (Crohn's disease; [5]) is given as 50%. The “response rate in CD” value (Crohn's disease; [5]) was 80%, the “patients in whom the fistula responds (closes), fistulizing CD” value (Crohn's disease; human, in vivo) was 68% and the “patients who develop an abscess, fistulizing CD” value (Crohn's disease; human, in vivo) was 12%.
